Entries after “also recorded” stand apart in the source; their conditions may differ.
Legend:
[1] = tested on: skin-derived precursors (SKPs); assay: Immunocytochemistry of neuronal markers in NDD peptide-treated cells; format: cell-based, rat (neonate Wistar); conditions: Figure 6B
Experimental: (§1) Rodent skin-derived precursor cells (SKPs), which can differentiate to neurons, were used. SKPs were previously isolated from the back dermis of neonate Wistar rats by the authors. These cells were cultured in growth medium composed of DMEM/F12 (1:1; Gibco, Grand Island, NY, USA) containing 2% B27 supplement (Gibco), 20 ng/mL epidermal growth factor (EGF; Upstate Biotechnology, Lake Placid, NY, USA), and 40 ng/mL bFGF (PeproTech EC Ltd., Rocky Hill, NJ, USA) in a humidified incubator at 37 °C with 5% CO2. The floating clusters of cultured cells were centrifuged and dissociated into a single-cell suspension by use of a Pasteur pipette with a flame-polished tip. These single cells were then re-suspended into at a concentration of 50,000 cells/mL for passage or experiments.
(§2) For neuronal differentiation, cells were dissociated into a single-cell suspension by use of a Pasteur pipette and re-suspended into a concentration of 50,000 cells/mL in DMEM/F12 without serum, neurotrophic factors or growth factors. Then, the cells were cultured on poly-L-lysine-coated dishes or cover glasses, and the synthesized peptides at concentrations from 1 to 5 μM were added to the culture medium and delivered into the cells. Three days or more later, the cells were used for morphological, immunocytochemical, immunohistochemical, electrophysiological and immunoprecipitation studies, as well as for Western blot analysis.
(§3) Cultured cells were fixed with 4% paraformaldehyde in PBS (Phosphate buffered saline) for 10 min at room temperature. Cells were incubated for 1 h at room temperature with primary antibodies. Antibodies against anti-MAP2 antibody (Sigma-Aldrich, St. Louis, MO, USA), anti-Neurofilment-H (NFH) antibody (Sigma-Aldrich), anti-NeuN antibody (Merk Millipore, Billerica, MA, USA), anti-GFAP antibody (DAKO, Santa Clara, CA, USA), anti-tyrosine hydroxylase (TH) antibody (Merk Millipore, Billerica, MA, USA), anti-choline acetyl transferase (ChAT) antibody (Abbiotec, San Diego, CA, USA), anti-glutamic acid decaboxylase (GAD) antibody (Enzo Life Sciences, Flamingdale, NY, USA), and anti-rhodopsin antibody (Santa Cruz, San Diego, CA, USA) were used. After incubation with primary antibody, the cells were incubated for 1 h with secondary antibody, either rhodamine-conjugated anti-mouse IgG (Sigma-Aldrich) or FITC-conjugated anti-rabbit IgG (Sigma-Aldrich). Nuclear counterstaining was done with DAPI (Molecular Probes, Eugene, OR, USA) or TO-PRO-3 (Molecular Probes), and observations were made with a fluorescence microscope system (FV300, Olympus, Tokyo, Japan). We counted the number of immuno-positive cells with a given antibody in 4 to 6 random non-overlapping visual fields (50–200 cells per field) in each experiment. At least 2 experiments were performed per condition. The degree of positivity was expressed as the rate of immuno-positive cells to the total number of nuclei stained with DAP1 or TO-PRO-3.

[2] = tested on: skin-derived precursors (SKPs); assay: Western blot analysis of NFH protein; format: cell-based, rat (neonate Wistar); conditions: three days after treatment, Figure 3B, peptides at 1 to 5 μM, less than VHL(157–171): VHL(157–168) p < 0.01, TAT p < 0.001
Experimental: as §1, §2
Cultured cells were washed 3 times in cold PBS and then scraped into ice-cold PBS. After incubation on ice for 10 min, the cells were lysed with lysis buffer and centrifuged, after which the supernatants were collected. Each sample was separated by SDS-PAGE under reducing conditions and transferred electrophoretically to nitrocellulose filters. Non-specific binding of antibody was blocked by incubation with 5% donkey serum for 1 h. Western blots were probed with anti-MAP2 antibody, anti-NFH antibody, anti-ChAT antibody, anti-GAD antibody, anti-rhodopsin antibody, anti-TH antibody, and anti-elongin C antibody (Santa Cruz, San Diego, CA, USA) followed by horseradish peroxidase-conjugated secondary antibodies. Protein bands were detected by using a chemical luminescence detection system (ECL Plus Western Blotting Reagent Pack, Amersham, Hemel Hempstead, UK). Images were analyzed with LAS-1000 (Fujifilm, Tokyo, Japan), and the density of the bands was determined by using Image Gauge software (Fujifilm).

[3] = tested on: skin-derived precursors (SKPs); assay: Immunocytochemistry with anti-Neurofilament-H (NFH) antibody; format: cell-based, rat (neonate Wistar); conditions: immunocytochemistry, peptides at 1 to 5 μM; mean ± SEM; vs VHL(157–171): p < 0.01 for VHL(157–168), p < 0.005 for TAT
Experimental: as §1, §2
as §3, with “After incubation with primary antibody, the cells were incubated for 1 h with secondary antibody, either rhodamine-conjugated anti-mouse IgG (Sigma-Aldrich) or FITC-conjugated anti-rabbit IgG (Sigma-Aldrich).” left out, “At least 2 experiments were performed per condition.” left out

JAK2 = assay: Ubiquitination assay (IP anti-JAK2, IB anti-ubiquitin); format: biochemical, rat; conditions: incubation 4 h with ubiquitin, E1, E2 and peptide; vs no peptide or TAT, p < 0.001; Figure 5A
Experimental: We asked whether VHL(157–171) peptide-mediated neuronal differentiation was related to ubiquitination or not. […] After incubation for 4 h, cultured cells (1 × 10^6) were washed with ice-cold PBS and lysed in RIPA lysis buffer (Upstate, Charlottesville, VA, USA). The total protein was extracted from the cells, and the lysates were immunoprecipitated with anti-JAK2 antibody (Santa Cruz, San Diego, CA, USA) by using Protein A/G Sepharose (abcam, Cambridge, MA, USA). The immunoprecipitates were supplemented with 1 mM PMSF and the protease inhibitor cocktail. After 2 h, each sample was separated by SDS-PAGE and transferred electrophoretically to nitrocellulose filters. Western blots were probed with anti-ubiquitin antibody (Sigma-Aldrich) followed by horseradish peroxidase-conjugated secondary antibodies (Amersham). Protein bands were detected by using a chemical luminescence detection system (Amersham). Images were analyzed with LAS-1000 (Fujifilm).

For “YARAAARQARATLKERCLQVVRSLVK [VHL(157–171), NDD in pVHL: BC-box motif plus five amino acids, conjugated with PTD]”, the “Rate of GAD-positive (GABAnergic neuron-like) cells” value [1] was “high rates of positive cells”, the “Rate of TH-positive (dopaminergic neuron-like) cells” value [1] was “high rates of positive cells” and the “Rate of rhodopsin-positive cells” value [1] was “high rates of positive cells”. The “NFH protein amount / band” value [2] was “A distinct band for NFH; also recorded: significantly greater amount of anti-NFH protein”, the “Percentage of NFH-positive cells” value [3] was 60.4 ± 6.4% and the JAK2 ubiquitination (JAK2) was “had activity as an E3 ubiquitin ligase and mediated JAK2 ubiqutination; also recorded: ubiquitination was significantly enhanced”.
